ChEMBL document CHEMBL5233248, “Resveratrol - A comprehensive review of recent advances in anticancer drug design and development” (Eur J Med Chem, 2020)
Values belong to the molecule of their own block, whether it stands above or below them.

Tests used:
[1] = target: T1, Aromatase (Homo sapiens, UniProt P11511); assay: Inhibition of human recombinant aromatase using 7-methoxy-4-trifluoromethyl coumarin as substrate preincubated for 10 mins followed by compound addition measured after 30 mins in presence of NADPH by HTS analysis
T1 sequence (P11511 whole entry): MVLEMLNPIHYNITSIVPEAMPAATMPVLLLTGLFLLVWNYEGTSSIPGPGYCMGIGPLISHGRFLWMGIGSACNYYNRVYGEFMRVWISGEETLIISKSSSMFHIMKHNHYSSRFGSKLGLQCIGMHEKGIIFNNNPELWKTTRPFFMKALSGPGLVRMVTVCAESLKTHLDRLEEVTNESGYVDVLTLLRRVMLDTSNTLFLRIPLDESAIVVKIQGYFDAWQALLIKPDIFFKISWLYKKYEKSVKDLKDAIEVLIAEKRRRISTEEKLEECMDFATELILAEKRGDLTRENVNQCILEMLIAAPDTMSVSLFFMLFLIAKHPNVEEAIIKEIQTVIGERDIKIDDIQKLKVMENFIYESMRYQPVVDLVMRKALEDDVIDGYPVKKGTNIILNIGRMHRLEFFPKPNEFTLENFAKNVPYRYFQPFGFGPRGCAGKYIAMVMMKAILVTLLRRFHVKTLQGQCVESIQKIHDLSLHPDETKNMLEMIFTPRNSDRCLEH

[2] = system: Panel NCI-60 (60 carcinoma cell lines); assay: Growth inhibition of human Panel NCI-60 (60 carcinoma cell lines); format: functional
[3] = Anticancer activity against human MuM-2B cells assessed as cell growth inhibition incubated for 72 hrs by CCK-8 assay; format: functional, cell-based
[4] = system: MV4-11; assay: Anticancer activity against human MV4-11 cells assessed as cell growth inhibition; format: functional; settings: read-out: LD50 (the source's name)
[5] = system: MDA-MB-435; assay: Anticancer activity against human MDA-MB-435 cells assessed as cell growth inhibition; format: functional
[6] = system: SF-295; assay: Anticancer activity against human SF-295 cells assessed as cell growth inhibition; format: functional
[7] = system: UACC-62; assay: Anticancer activity against human UACC-62 cells assessed as cell growth inhibition; format: functional
[8] = system: COLO 205; assay: Anticancer activity against human COLO 205 cells assessed as cell growth inhibition; format: functional
[9] = system: SF-539; assay: Anticancer activity against human SF-539 cells assessed as cell growth inhibition; format: functional
[10] = system: SK-MEL-5; assay: Anticancer activity against human SK-MEL-5 cells assessed as cell growth inhibition; format: functional
[11] = system: HCT-116; assay: Anticancer activity against human HCT-116 cells assessed as cell growth inhibition incubated for 4 days; format: functional, cell-based; settings: HCT-116, 96 h
[12] = system: PC-3; assay: Anticancer activity against human PC-3 assessed as cell growth inhibition incubated for 24 hrs by MTT assay; format: functional, cell-based; settings: PC-3, 24 h
[13] = system: MCF7; assay: Anticancer activity against human MCF7 assessed as cell growth inhibition incubated for 24 hrs by MTT assay; format: functional, cell-based; settings: MCF7, 24 h
[14] = system: HeLa; assay: Anticancer activity against human HeLa cells assessed as cell growth inhibition; format: functional, cell-based
[15] = system: PANC-1; assay: Anticancer activity against human PANC-1 cells assessed as cell growth inhibition incubated for 48 hrs by SRB assay; format: functional
[16] = system: MDA-MB-231; assay: Anticancer activity against human MDA-MB-231 cells assessed as cell growth inhibition incubated for 48 hrs by SRB assay; format: functional, cell-based; settings: MDA-MB-231, 48 h
[17] = system: SK-OV-3; assay: Anticancer activity against human SK-OV-3 assessed as cell growth inhibition incubated for 72 hrs by MTT assay; format: functional, cell-based; settings: SK-OV-3, 72 h
[18] = system: MCF7; assay: Anticancer activity against human MCF7 cells assessed as reduction of cell viability incubated for 48 hrs by MTT assay; format: functional, cell-based; settings: MCF7, 48 h
[19] = system: A-431; assay: Anticancer activity against human A-431 cells assessed as reduction of cell viability incubated for 48 hrs by MTT assay; format: functional, cell-based; settings: A-431, 48 h
[20] = system: MCF-12A; assay: Anticancer activity against human MCF-12A cells assessed as reduction of cell viability incubated for 48 hrs by MTT assay; format: functional, cell-based
[21] = system: HaCaT; assay: Anticancer activity against human HaCaT cells assessed as reduction of cell viability incubated for 48 hrs by MTT assay; format: functional, cell-based
[22] = system: HeLa; assay: Anticancer activity against human HeLa cells assessed as cell growth inhibition incubated for 48 hrs by MTT assay; format: functional, cell-based
[23] = system: HL-60; assay: Anticancer activity against human HL-60 cells assessed as cell growth inhibition incubated for 48 hrs by MTT assay; format: functional, cell-based; settings: HL-60, 48 h
[24] = system: A2780; assay: Anticancer activity against human A2780 cells assessed as cell growth inhibition incubated for 24 hrs […] by MTT assay; format: functional, cell-based; settings: A2780, 24 h
[25] = system: SK-OV-3; assay: Anticancer activity against human SK-OV-3 cells assessed as cell growth inhibition incubated for 24 hrs […] by MTT assay; format: functional, cell-based; settings: SK-OV-3, 24 h
[26] = Anticancer activity against human HOSE cells assessed as cell growth inhibition by LDH release assay; format: functional, cell-based
[27] = system: A2780; assay: Anticancer activity against human A2780 cells assessed as cell growth inhibition by LDH release assay; format: functional, cell-based
[28] = system: OVCAR-3; assay: Anticancer activity against human OVCAR-3 cells assessed as cell growth inhibition by LDH release assay; format: functional, cell-based
[29] = Anticancer activity against human Peritoneal mesothelial cells assessed as cell growth inhibition by LDH release assay; format: functional, cell-based
[30] = Anticancer activity against human HOSE cells assessed as cell growth inhibition incubated for 24 hrs […] by MTT assay; format: functional, cell-based
[31] = system: SK-OV-3; assay: Anticancer activity against human SK-OV-3 cells assessed as cell growth inhibition by LDH release assay; format: functional, cell-based
[32] = Anticancer activity against human Peritoneal mesothelial cells assessed as cell growth inhibition incubated for 24 hrs […] by MTT assay; format: functional, cell-based
[33] = system: OVCAR-3; assay: Anticancer activity against human OVCAR-3 cells assessed as cell growth inhibition incubated for 24 hrs […] by MTT assay; format: functional, cell-based; settings: OVCAR-3, 24 h
[34] = system: HT-29; assay: cells; settings: Homo sapiens, HT-29, 48 h
Description: Anti cancer activity against human HT-29 cell assessed as cell growth inhibition incubated for 48 hrs by Brdu assay

[35] = system: Caco-2; assay: cells; settings: Homo sapiens, Caco-2, 48 h
Description: Anti cancer activity against human Caco-2 cell assessed as cell growth inhibition incubated for 48 hrs by Brdu assay

[36] = system: B16-F10; assay: Anti cancer activity against mouse B16-F10 cells assessed as cell growth inhibition incubated for 40 hrs by Almar Blue stained fluorescence-based assay relative to control; format: functional
[37] = system: HepG2; assay: cells; settings: Homo sapiens, HepG2, 48 h
Description: Anti cancer activity against human HepG2 cell assessed as cell growth inhibition incubated for 48 hrs by Brdu assay

[38] = system: MDA-MB-157; assay: Anticancer activity against human MDA-MB-157 cells assessed as cell viability at 10 uM measured after 7 days relative to control; format: functional; settings: MDA-MB-157, 168 h, time 7 day, read-out: Activity
[39] = system: MDA-MB-231; assay: Anticancer activity against human MDA-MB-231 cells assessed as cell viability at 10 uM measured after 7 days relative to control; format: functional; settings: MDA-MB-231, 168 h, time 7 day, read-out: Activity
[40] = system: B16-F10; assay: Anti cancer activity against mouse B16-F10 cells assessed as cell growth inhibition incubated for 40 hrs by Almar Blue stained fluorescence-based assay; format: functional; settings: B16-F10, 40 h
[41] = system: MCF7; assay: Anticancer activity against human MCF7 cells assessed as cell viability at 10 uM measured after 7 days relative to control; format: functional; settings: MCF7, 168 h, time 7 day, read-out: Activity
[42] = system: BT-549; assay: Anticancer activity against human BT-549 cells assessed as cell viability at 10 uM measured after 7 days relative to control; format: functional; settings: BT-549, 168 h, time 7 day, read-out: Activity
[43] = system: ZR-75-1; assay: Anticancer activity against human ZR-75-1 cells assessed as cell viability at 10 uM measured after 7 days relative to control; format: functional; settings: ZR-75-1, 168 h, time 7 day, read-out: Activity
[44] = in vitro; settings: human, CCD-1059Sk cells and MCF7 cells
Description: Selectivity index, ratio of IC50 for cytotoxicity against CCD-1059Sk cells to IC50 for antiproliferative activity against MCF7 cells

[45] = system: MCF7; assay: Anticancer activity against human MCF7 cells assessed as cell growth inhibition incubated for 48 hrs by MTS assay; format: functional, cell-based; settings: MCF7, 48 h
[46] = system: MCF7; assay: Anticancer activity against human MCF7 cells assessed as cell growth inhibition incubated for 48 hrs in presence of resveratrol by MTS assay; format: functional, cell-based; settings: MCF7, 48 h
[47] = Cytotoxicity activity against human CCD-1059Sk cells assessed as cell growth inhibition incubated for 48 hrs by MTS assay; format: toxicity, cell-based
[48] = in vitro; settings: human, CCD-1059Sk cells and MCF7 cells; remark: listed apart in the source
Description: Selectivity index, ratio of IC50 for cytotoxicity against CCD-1059Sk cells to IC50 for antiproliferative activity against MCF7 cells in presence of resveratrol

[49] = Cytotoxicity activity against human CCD-1059Sk cells assessed as cell growth inhibition incubated for 48 hrs in presence of resveratrol by MTS assay; format: toxicity, cell-based

IC50 [1]: 85 µM
Compound: COc1ccccc1/C=C/c1ccc(OC)c(OC)c1

Compound: COc1ccc(/C=C(\C#N)c2cc(OC)c(OC)c(OC)c2)cc1O
GI50 [2]: < 0.01 µM

Compound: COc1cc(/C=C/c2ccc(OCC(=O)O[C@H]3c4cc5c(cc4[C@@H](c4cc(OC)c(OC)c(OC)c4)[C@H]4C(=O)OC[C@@H]43)OCO5)cc2)cc(OC)c1
IC50 [3]: 0.081 µM

Compound: COc1ccc(/C(C#N)=C/c2ccc3ccccc3c2)cc1OC
CC50 [4]: 0.45 µM
GI50 [5]: 0.025 µM
GI50 [6]: 0.025 µM
GI50 [7]: 0.025 µM

Compound: COc1cc(/C(C#N)=C/c2ccc3ccccc3c2)cc(OC)c1OC
GI50 [8]: ≤ 0.025 µM
CC50 [4]: 0.2 µM
GI50 [5]: ≤ 0.025 µM
GI50 [9]: ≤ 0.025 µM
GI50 [10]: ≤ 0.025 µM

IC50 [11]: 9.52 µM
Compound: CC1c2cc(O)c(O)cc2Oc2cc(/C=C/c3ccc(O)cc3)cc(O)c21 (stereo not drawn)

IC50 [12]: 12.4 µM
IC50 [13]: 14.5 µM
Compound: Oc1ccc(/C=C/c2cccc(Br)n2)cc1O

IC50 [14]: 10.2 µM
Compound: CC(=O)Oc1ccc(/C=C/c2ncc3cccc(OC(C)=O)c3n2)cc1OC(C)=O

GI50 ([15]; 48 h): 0.094 µM
GI50 ([15]; Homo sapiens, PANC-1, 48 h): 0.064 µM
IC50 [16]: 0.072 µM
Compound: COc1cc(/C=C/c2ccc(OC(=O)CSc3nnc(-c4cccc(C(F)(F)F)c4)o3)cc2)cc(OC)c1

IC50 [17]: 18.2 µM
Compound: COc1cc(OC)cc(-n2cnc(-c3ccc(O)cc3)c2)c1

IC50 [18]: 2.1 µM
IC50 [19]: 19.3 µM
Compound: COc1cc(/C=C/c2ccc(SC)cc2)cc(OC)c1OC
IC50 [20]: 25.7 µM
IC50 [21]: 10 µM

IC50 [22]: 38.9 µM
IC50 [23]: 47.7 µM
Compound: COc1ccc(NC(=O)c2cc(OC)cc(OC)c2)cc1

IC50 [24]: 4 µM
IC50 [25]: 8 µM
IC50 [27]: 6 µM
IC50 [28]: 85 µM
IC50 [31]: 10 µM
IC50 [33]: 50 µM
Compound: Oc1ccc(/C=C/c2ccc(O)c(O)c2)cc1O
IC50 [26]: 532 µM
IC50 [29]: 498 µM
IC50 [30]: 502 µM
IC50 [32]: 496 µM

Compound: COc1ccc(/C=C\c2cc(OC)cc(OC)c2)cc1 [8Z-3,4',5-TRIMETHOXYSTILBENE]
IC50 [34]: 0.115 µM
IC50 [35]: 0.145 µM
inhibition (INH) [36]: 75%
IC50 [37]: 0.473 µM
viability at 10 µM [38]: 25%
viability at 10 µM [39]: 10%
IC50 [40]: 1 µM
viability at 10 µM [41]: 50%
viability at 10 µM [42]: 70%
viability at 10 µM [43]: < 50%

Compound: COc1ccc(/C=C\c2cc(OC)c(OC)c(OC)c2)cc1O [COMBRETASTATIN A4]
GI50 [2]: < 0.01 µM

IC50 [45]: 68.2 µM
IC50 [46]: 61.7 µM
Compound: COc1cc(/C=C/C(=O)CC(=O)/C=C/c2ccc(O)c(OC)c2)ccc1O [CURCUMIN]
selectivity ratio [44]: 1.93
IC50 at 48 h [47]: 133 µM
selectivity ratio [48]: 1.35
IC50 at 48 h [49]: 83.1 µM
